Experimental data as given in patent US6703387B2, “Inhibitors of HPV E1 helicase enzyme” (Hoffmann-La Roche Inc., priority 2000, dated 2004).
Counter-ions that a name gives are not always drawn.

Biological target: T1, HPV(11) E1 helicase enzyme (MBP fusion protein), ATPase activity (Human papillomavirus 11, UniProt P04014)
T1 construct: made in house; host or cells: SF9 insect cells, baculovirus expression system
Assay: E1 ATPase activity assay ([γ33P]ATP hydrolysis, charcoal separation)
Assay type: biochemical
Details: 20 μM ATP, 1 hour at 37° C., pH 7.0, read-out: Activity (IC50, concentration of test compound which inhibits enzyme activity by 50%)
Procedure: For assaying E1 ATPase activity the HPV E1 enzyme has been prepared and purified as follows:
The HPV(11) E1 used in this assay is expressed as a maltose binding protein (MBP) fusion protein from SF9 cells using a baculovirus expression system. Frozen pellets of these cells are thawed by adding the pellet directly into a buffer at 4 OC containing 50 mM Tris-HCl pH 7.5, 20 mM dithiothreitol (DTT), 1 mM EDTA, 600 mM NaCl, 20% glycerol and 3 “Complete” protease inhibitor tablets/50 ml (Boehringer Mannheim cat.no.1 697 498). The cell suspension is then sonicated for 3×10 seconds before centrifuging at 18000 rpm for 30 minutes to remove the cell debris. The clarified extract is then passed down a DE52 ion exchange column which is washed with a buffer containing 50 mM Tris-HCl pH 7.5, 2 mM DTT, 1 mM EDTA, 600 mM NaCl and 20% glycerol. The column flow through plus the first 10 mls of wash buffer are then passed down an amylose affinity column which binds MBP tagged proteins. This column is washed with 3 column bed volumes of the wash buffer before being eluted with wash buffer containing 10 mM maltose. The eluted protein peak containing purified HPV(11) E1 is then dialysed overnight against 2 L of buffer containing 20 mM Tris-HCl pH 7.5, 2 mM DTT, 20 mM NaCl and 20% glycerol. The dialyzed material is used in the assay.
E1 ATPase activity can be measured as follows:
The standard reaction contains 50 mM MOPs KOH pH 7.0, 500 μM MgCl2, 20 μM ATP, 50 mM NaCl, 40 μl of a suitably diluted enzyme extract and 10 μl of inhibitor in a final volume of 100 μl. The ATP contains 0.1 μCi [γ^33P]ATP per reaction. The enzyme diluent contains 50 mM MOPs KOH pH7.0 and 1 mg/ml BSA. The inhibitor is diluted to give a range of concentrations in neat DMSO. Reaction tubes are incubated for 1 hour at 37° C. (producing linear kinetics) after which the reaction is terminated by heat inactivation at 85° C. for 2 minutes. 500 μl 15% activated charcoal in PBS is then added to each reaction. The activated charcoal used is 100-400 mesh untreated powder (Sigma cat No C-5260); prior to use in the assay this is washed in PBS several times and allowed to settle out under gravity, any fine particles still in suspension being decanted off after each wash. The reactions are left on ice for 1 hour after which the charcoal is pelleted out by centrifugation at 14000 rpm for 10 minutes. The charcoal pellet contains unconverted [γ^33P]ATP, whilst any free inorganic ^33P, the reaction product, will remain in the supernatant. The amount of radioactivity present in 300 μl of supernatant is then measured by scintillation spectrophotometry.
The results can be calculated as follows:
The degree of inhibition at each inhibitor concentration is expressed as a percentage of the control reaction (100%) after subtracting a measured blank value, which represents the amount of free inorganic ^33P present in a reaction containing heat inactivated enzyme. An IC50 value (concentration of test compound which inhibits enzyme activity by 50%) is then calculated from a dose response curve of log10 inhibitor concentration against percentage of the control reaction.

T1 sequence (P04014 whole entry, the tested form may be a part): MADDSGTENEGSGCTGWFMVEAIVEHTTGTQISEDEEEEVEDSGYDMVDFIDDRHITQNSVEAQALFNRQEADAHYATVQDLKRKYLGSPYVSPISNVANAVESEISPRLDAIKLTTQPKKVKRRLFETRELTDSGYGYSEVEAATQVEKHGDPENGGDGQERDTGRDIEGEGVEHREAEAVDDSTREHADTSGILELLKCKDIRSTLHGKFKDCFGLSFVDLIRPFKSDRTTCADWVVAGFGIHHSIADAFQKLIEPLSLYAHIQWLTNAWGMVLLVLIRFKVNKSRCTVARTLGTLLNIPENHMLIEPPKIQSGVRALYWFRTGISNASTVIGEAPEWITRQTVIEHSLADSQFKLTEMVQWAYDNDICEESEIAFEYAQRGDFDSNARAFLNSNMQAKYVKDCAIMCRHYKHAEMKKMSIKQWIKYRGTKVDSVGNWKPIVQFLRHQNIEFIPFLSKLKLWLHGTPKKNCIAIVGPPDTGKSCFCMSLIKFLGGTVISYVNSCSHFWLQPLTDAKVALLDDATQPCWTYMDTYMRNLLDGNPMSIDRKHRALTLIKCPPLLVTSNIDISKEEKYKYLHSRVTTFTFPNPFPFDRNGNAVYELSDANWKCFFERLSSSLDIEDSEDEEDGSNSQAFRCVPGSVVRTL

SMILES: CN1CCN=C(/C=C/c2cccc(Oc3ccccc3)c2)c2ccccc21 [Example 3, (E)-2,3-Dihydro-1-methyl-5-(3-phenoxystyryl)-1H-1,4-benzodiazepine dihydrochloride]
- IC50: 2.4 µM

SMILES: CN1CCN=C(/C=C/c2cnccc2-c2cccc(Br)c2)c2ccccc21 [Example 6, (E)-5-[2-[4-(3-Bromophenyl)-3-pyridyl]vinyl]-2,3-dihydro-1-methyl-1H-1,4-benzo-diazepine dihydrochloride]
- IC50: 4.2 µM

SMILES: CN1CCN=C(/C=C/c2ccc(Cl)c(Cl)c2)c2cccnc21 [Example 29, (E)-5-(3,4-Dichlorostyryl)-2,3-dihydro-1-methyl-1H-pyrido[2,3-e][1,4]diazepine hydrochloride (1:3)]
- IC50: 3 µM

SMILES: FC(F)(F)c1cccc2c1NCCN=C2/C=C/c1ccc(Cl)c(Cl)c1 [Example 38, (E)-5-(3,4-Dichlorostyryl)-9-(trifluoromethyl)-2,3-dihydro-1H-1,4-benzodiazepine dihydrochloride]
- IC50: 5.6 µM

SMILES: CN1CCN=C(/C=C/c2cnccc2-c2cccc(Br)c2)c2ccc(Br)cc21 [Example 42, (E)-8-Bromo-5-[2-[4-(3-bromophenyl)-3-pyridyl]vinyl]-2,3-dihydro-1-methyl-1H-1,4-benzodiazepine dihydrochloride]
- IC50: 2.4 µM

SMILES: CN1CCN=C(/C=C/c2ccc(C#N)c(SCc3ccc(Cl)cc3)n2)c2ccc(Br)cc21 [Example 44, (E)-6-[2-(8-Bromo-2,3-dihydro-1-methyl-1H-1,4-benzodiazepin-5-yl)vinyl]-2-(4-chlorobenzylthio)-3-pyridinecarbonitrile dihydrochloride]
- IC50: 2.5 µM

SMILES: Cc1cc(C)n(COc2cccc(/C=C/C3=NCCN(C)c4ccccc43)c2)n1 [Example 92, (E)-2,3-Dihydro-1-methyl-5-[3-[(3,5-dimethyl-1-pyrazolyl)methoxy]-styryl]-1H-1,4-benzodiazepine dihydrochloride]
- IC50: 19 µM

SMILES: CN1CCN=C(/C=C/c2ccccc2Sc2ccc(Cl)cc2)c2ccccc21 [Example 121, (E)-5-[2-(4-Chlorophenylthio)styryl]-2,3-dihydro-1-methyl-1H-1,4-benzodiazepine dihydrochloride]
- IC50: 1.6 µM

SMILES: CC(C)N1CCN=C(/C=C/c2ccc(Cl)c(Cl)c2)c2ccccc21 [Example 123, (E)-5-(3,4-Dichlorostyryl)-2,3-dihydro-1-isopropyl-1H-1,4-benzodiazepine dihydrochloride]
- IC50: 2 µM

SMILES: O=C(c1ccccc1)N1CCN=C(/C=C/c2ccc(Cl)c(Cl)c2)c2ccccc21 [Example 125, (E)-1-Benzoyl-5-(3,4-dichlorostyryl)-2,3-dihydro-1H-1,4-benzodiazepine hydrochloride]
- IC50: 5.6 µM

SMILES: COC(=O)c1ccc(CN2CCN=C(/C=C/c3ccc(Cl)c(Cl)c3)c3ccccc32)cc1 [Example 127, Methyl (E)4-[[5-(3,4-dichlorostyryl)-2,3-dihydro-1H-1,4-benzodiazepin-1-yl]methyl]benzoate dihydrochloride]
- IC50: 2.2 µM

SMILES: O=C(O)c1ccc(CN2CCN=C(/C=C/c3ccc(Cl)c(Cl)c3)c3ccccc32)cc1 [Example 132, (E)-4-[[5-(3,4-dichlorostyryl)-2,3-dihydro-1H-1,4-benzodiazepin-1-yl]methyl]benzoic acid dihydrochloride]
- IC50: 4.4 µM

SMILES: O=C(O)c1cccc(CN2CCN=C(/C=C/c3ccc(Cl)c(Cl)c3)c3ccccc32)c1 [Example 133, (E)-3-[[5-(3,4-Dichlorostyryl)-2,3-dihydro-1H-14-benzodiazepin-1-yl]methyl]benzoic]acid hydrochloride]
- IC50: 3.1 µM

SMILES: O=C(O)CN1CCN=C(/C=C/c2ccc(Cl)c(Cl)c2)c2ccccc21 [Example 137, (E)-5-(3,4-Dichlorostyryl)-2,3-dihydro-1H-1,4-benzodiazepine-1-acetic acid]
- IC50: 20 µM

SMILES: CCOC(=O)c1ncn2c1CN=C(/C=C/c1ccc(Cl)c(Cl)c1)c1ccccc1-2 [Example 139, Ethyl (E)-6-(3,4-dichlorostyryl)-4H-imidazo[1,5-a]benzodiazepine-3-carboxylate]
- IC50: 20 µM

SMILES: CN1CCN=C(/C=C/c2ccc(Cl)c(Cl)c2)c2cc(NS(C)(=O)=O)ccc21 [Example 162, (E)-N-[5-(3,4-Dichlorostyryl)-2,3-dihydro-1-methyl-1H-1,4-benzodiazepin-7-yl]methanesulfonamide]
- IC50: 8.6 µM

SMILES: CN1CCN=C(/C=C/c2ccc(Cl)c(Cl)c2)c2ccc(-c3cccs3)cc21 [Example 164, (E)-5-(3,4-Dichlorostyryl)-2,3-dihydro-1-methyl-8-(2-thienyl)-1H-1,4-benzodiazepine hydrochloride]
- IC50: 12 µM
